Columns and labels:
streptavidin [1] = target: T1, streptavidin (Streptomyces avidinii, UniProt P22629); experiment: Fluorescence polarization of biotin/streptavidin complex in lab-on-a-chip microchannel, apparatus of FIG. 2 with optical chopper (Embodiment 3); type: binding
Description: Fluorescence polarization for the complex of biotin and streptavidin was measured using the apparatus of FIG. 2 including the optical chopper of the invention. In this Embodiment, a lab-on-a-chip made of glass and composed of a microchannel having a depth of 12 μm and a width of 79 μm was used to measure fluorescence polarization for a complex of biomolecule-fluorescently labeled biomaterial.
For the measurement, the samples were respectively filled in the reservoir of the lab-on-a-chip as following three cases: (A) wherein 4 μM of tetramethylrhodamine TMR was filled in the reservoir; (B) wherein 4 μM of TMR-biotin was put into the reservoir; and (C) wherein 4 μM of TMR-biotin and 1 μM of streptavidin were filled in the reservoirs.
Fluorescence polarizations FP for the above samples were measured in the microchannel of the lab-on-a-chip using the apparatus of FIG. 2 including the optical chopper.
As a result, in case of (A), fluorescence polarization was measured 0.047; in case of (B), it was 0.062; and in case of (C), it was 0.240, which were increased the complex of TMR-biotin and streptavidin was formed as shown in FIG. 7A.

streptavidin [2] = target: T1, streptavidin; experiment: Fluorescence polarization of biotin/streptavidin complex in lab-on-a-chip microchannel, apparatus of FIG. 2 without optical chopper (Embodiment 2); type: binding
Description: Fluorescence polarization FP for the complex of biotin and streptavidin in a lab-on-a-chip was measured using the apparatus of FIG. 2, wherein the optical chopper was not inserted. In this Embodiment, a lab-on-a-chip made of glass and composed of a microchannel having a depth of 12 μm and a width of 79 um was used instead of the 100 μL cuvette. After filling 100 μM of tetramethylrhodamine TMR solution in the microchannel of the lab-on-a-chip using a vacuum pump, a G-factor value was obtained in the same manner described above in Embodiment 1. […] Subsequently, the above samples filled in the reservoirs 1 and 2 were injected into the microchannel using the vacuum pump 6 of the lab-on-a-chip to measure fluorescence polarizations FP for the samples at a detection point 5 of the lab-on-a-chip.
As a result, in case of (A), fluorescence polarization was measured 0.085; in case of (B), it was 0.097; in case of (C), it was 0.036; in case of (D), it was 0.040; and in case of (E), it was 0.064, which were deviated from the expectations of increases in fluorescence polarization FP as not increased as the complex of TMR-biotin and streptavidin was formed as shown in FIG. 6A.
Fluorescence polarizations were recalculated from the measured values by subtracting the offset values, the offset being measured in the microchannel when only the buffer solution was filled. […]

TMR-α-casein [3] = experiment: Protease assay by fluorescence polarization of TMR-α-casein substrate, commercial fluorescence spectrometer; type: biochemical; conditions: time course, varying enzyme concentrations (unit/mL); FIGS. 9A-9D
Description: Changes of fluorescence polarization FP were measured using the method and apparatus for measuring fluorescence polarization of the present invention, employing TMR-α-casein as a substrate, composed of TMR as a fluorescent probe and α-casein, a universal protein substrate reacted with various proteases.
First, TMR-α-casein, a fluorescently labeled substrate for proteases, was prepared by applying one of the well-known methods [Analytical Biochemistry (,1996) 243, 1-7] as follows.
10 mg/mL of α-casein (sigma) and 5 mg/mL of 5-carboxytetramethylrhodamine succinimidyl ester were mixed in 0.1 M sodium bicarbonate buffer solution (pH 9.0) for reaction at room temperature for two and a half hours. The resulting TMR-α-casein was purified by passing the reaction mixture over a HiTrap desalting column (Sephadex G-25 Amersham Bioscience), and used after quantitation of the amounts of protein and fluorescence.
Proteinase K, trypsin, papain and elastase were used as proteases to react at increasing concentrations. First, as a comparative example, the process that the TMR-α-casein substrate was degraded by the proteases was analyzed using a commercial fluorescence spectrometer (Perkin Elmer). […]

TMR-α-casein [4] = experiment: On-chip protease assay by fluorescence polarization of TMR-α-casein substrate, lab-on-a-chip with optical chopper; type: biochemical; conditions: 1 μM TMR-α-casein final in channel; reaction time 5.1 seconds; FIGS. 10A-10D
Description: Next, the protease assays were carried out using an apparatus for measuring fluorescence polarization including the optical chopper of FIG. 2 on a lab-on-a-chip of glass composed of a channel 1 C1, in which substrates or enzymes flowed, and a channel 2 C2, in which the reaction occurred, the channels having a depth of 12 μm and a width of 79 μm as depicted in FIG. 8.
For on-chip protease assays, the substrates and the enzymes should mix completely prior to the enzyme reactions. […] […] Therefore, the reaction time was confirmed to be 5.1 seconds after mixing of the substrate with the enzymes.
Subsequently, to carry out the protease assays in the lab-on-a-chip,2 μM of TMR-α-casein (the final concentration in the channel was 1 μM) was placed in a substrate reservoir and the respective proteases were placed in an enzyme reservoir at increasing concentrations in the same manner as the comparative example. Then, the two substances were allowed to flow into a channel 2 C2, a main channel, to cause a reaction. Fluorescence polarization FP was then measured at the detection point, positioned 32 mm away from the junction, from which the substrates and the enzymes flowed in.
Again, it was noted that fluorescence polarization values plateaued when the concentration of the enzymes reached at the point generating a specific rate or more.

change of fluorescence polarization values of TMR-α-casein with enzyme concentration (TMR-α-casein [4])	Compound	change of fluorescence polarization values of TMR-α-casein as the reaction proceeded (TMR-α-casein [3])	other results
–	O=C(O)CCCC[C@@H]1SC[C@@H]2NC(=O)N[C@@H]21 [D-biotin]	–	change of fluorescence polarization by competitive inhibition of TMR-biotin/streptavidin binding (streptavidin [1]; increasing concentrations of D-biotin supplied to the complex (4 μM TMR-biotin, 1 μM streptavidin) in the microchannel, FIG. 7B): decreased with the increasing concentrations
–	CN(C)c1ccc2c(-c3ccccc3C(=O)[O-])c3ccc(N(C)C)cc3[o+]c2c1 [TMR, tetramethylrhodamine]	–	fluorescence polarization recalculated by subtracting the offset values (streptavidin [2]; 1.25 μM probe only in reservoir 1, buffer offset subtracted): 0.020; fluorescence polarization (as measured, offset not subtracted) (streptavidin [2]; 1.25 μM probe only in reservoir 1, no chopper): 0.085; fluorescence polarization (streptavidin [1]; 4 μM probe only, microchannel, optical chopper): 0.047
decreased with increasing concentrations	elastase	decreased	–
decreased with increasing concentrations	trypsin	decreased	–
